Our source for the CC50 and EC50 values is patent US11247965B2 (VenatoRx Pharmaceuticals, Inc., priority 2017, dated 2022).

Molecules are shown by their SMILES.

Series [1] is described as follows: In vitro cytotoxicity, MTT cell viability assay in HepG2 cells. The class given is cell-based. Particulars: human, Cytotoxicity CC50. Summed up: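 CC50 values reflect loss of HepG2 viability after a 7-day exposure at 37 °C, 5% CO2. After 3-4 h with MTT, solubilized formazan was quantified at 492 nm relative to vehicle wells.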
For series [2], the system named is HBV replication in HepAD38 cells. The experiment in a line: Anti-HBV activity in HepAD38 cells, extracellular HBV DNA by QPCR. The class given is cell-based, HBV (genotype D, serotype ayw). Particulars: Hepatitis B virus, HePAD38, 168 h, read-out: Anti-HBV EC50, HepAD38 cells, extracellular HBV DNA by QPCR, 7 days of incubation. A digest of the protocol: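 Seven-day compound exposure (30 μM down to 10 nM, half-log steps) after tetracycline withdrawal induced HBV replication in HepAD38 cells. Extracellular viral DNA measured by QPCR (copies/mL via standard curve), normalised to DMSO wells; EC50 from 4-parameter non-linear regression.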

By CC50 is commonly meant the concentration that lowers cell viability or growth by half. The low end stands for harm at low concentration, the high end for better tolerance by the cells. As a reminder, the EC50 is the concentration giving half of the maximal effect. The molecule `CC(=O)N1C[C@@H](C)N(C(=O)C(F)(F)c2cc(C(=O)Nc3ccc(F)c(C)c3)ccc2F)[C@@H](C)C1` [Example 294, 3-(2-((2S,6R)-4-acetyl-2,6-dimethylpiperazin-1-yl)-1,1-difluoro-2-oxoethyl)-4-fluoro-N-(4-fluoro-3-methylphenyl)benzamide] yielded a CC50 at 7 days in series [1] of 5 to 30 µM. Also, the EC50 in series [2] was < 5 µM.

In the case of `Cc1cc(NC(=O)c2ccnc(C(F)(F)C(=O)N3C4CC[C@@H]3C[C@@H](C(N)=O)C4)c2)ccc1F` [Example 245, (1R,3s,5S)-8-(2,2-difluoro-2-(4-((4-fluoro-3-methylphenyl)carbamoyl)pyridin-2-yl)acetyl)-8-azabicyclo[3.2.1]octane-3-carboxamide], the CC50 at 7 days in series [1] was > 30 µM. Also, in series [2], the EC50 was in the range of 5 to 30 µM.

For `Cc1cc(NC(=O)c2ccc(F)c(C(F)(F)C(=O)N[C@H]3CC[C@H](O)CC3)c2)ccc1F` [Example 79, 3-(1,1-difluoro-2-(((1r,4r)-4-hydroxycyclohexyl)amino)-2-oxoethyl)-4-fluoro-N-(4-fluoro-3-methylphenyl)benzamide], the CC50 at 7 days in series [1] is > 30 µM. Besides, the EC50 in series [2] lay within 5 to 30 µM.

Turning to `Cc1cc(NC(=O)c2ccc(F)c(C(F)(F)C(=O)N3CCN4C(=O)NCC4C3)c2)ccc1F` (centres unmarked) [Example 264, 3-(1,1-difluoro-2-oxo-2-(3-oxohexahydroimidazo[1,5-a]pyrazin-7(1H)-yl)ethyl)-4-fluoro-N-(4-fluoro-3-methylphenyl)benzamide], in series [1], the CC50 at 7 days was > 30 µM. The EC50 in series [2] was < 5 µM.

`Cc1cc(NC(=O)c2ccc(F)c(C(F)(F)C(=O)NC34CC5CC(CC(O)(C5)C3)C4)c2)ccc1F` [Example 272, 3-(1,1-difluoro-2-(((1r,3s,5R,7S)-3-hydroxyadamantan-1-yl)amino)-2-oxoethyl)-4-fluoro-N-(4-fluoro-3-methylphenyl)benzamide] registered a CC50 at 7 days in series [1] of 5 to 30 µM. Besides, the EC50 in series [2] lay in the range of 5 to 30 µM.

In series [1], `Cc1cc(NC(=O)c2ccc(F)c(C(F)(F)C(=O)N3[C@@H]4CC[C@H]3C[C@H](N)C4)c2)ccc1F` [Example 228, 3-(2-((1R,3s,5S)-3-amino-8-azabicyclo[3.2.1]octan-8-yl)-1,1-difluoro-2-oxoethyl)-4-fluoro-N-(4-fluoro-3-methylphenyl)benzamide] gave a CC50 at 7 days of 5 to 30 µM. Besides, the EC50 in series [2] is < 5 µM.

In turn, `Cc1cc(NC(=O)c2ccc(F)c(C(F)(F)C(=O)N3[C@@H]4CCC[C@H]3C[C@H](NS(C)(=O)=O)C4)c2)ccc1F` [Example 338, 3-(1,1-difluoro-2-((1R,3s,5S)-3-(methylsulfonamido)-9-azabicyclo[3.3.1]nonan-9-yl)-2-oxoethyl)-4-fluoro-N-(4-fluoro-3-methylphenyl)benzamide] came in with a CC50 at 7 days in series [1] of 5 to 30 µM. The EC50 in series [2] was < 5 µM.

With `Cn1cc(NC(=O)c2ccc(F)c(C(F)(F)C(=O)N3CCC(O)CC3)c2)cn1` [Example 89, 3-(1,1-difluoro-2-(4-hydroxypiperidin-1-yl)-2-oxoethyl)-4-fluoro-N-(1-methyl-1H-pyrazol-4-yl)benzamide], the CC50 at 7 days in series [1] was in the range of 5 to 30 µM. Further, the EC50 in series [2] is > 30 µM.

Regarding `Cc1cc(NC(=O)c2ccn(C)c2C(F)(F)C(=O)N[C@@H]2CCCC[C@H]2O)ccc1F` [Example 128, 2-(1,1-difluoro-2-(((1R,2R)-2-hydroxycyclohexyl)amino)-2-oxoethyl)-N-(4-fluoro-3-methylphenyl)-1-methyl-1H-pyrrole-3-carboxamide], the CC50 at 7 days in series [1] was > 30 µM. Moreover, in series [2], the EC50 lay within 5 to 30 µM.

As to `Cc1cc(NC(=O)c2ccc(F)c(C(F)(F)C(=O)N3CCc4[nH]ncc4C3)c2)ccc1F` [Example 204, 3-(1,1-difluoro-2-oxo-2-(1,4,6,7-tetrahydro-5H-pyrazolo[4,3-c]pyridin-5-yl)ethyl)-4-fluoro-N-(4-fluoro-3-methylphenyl)benzamide], the CC50 at 7 days in series [1] is 5 to 30 µM. Besides, in series [2], the concentration giving a half-maximal response (EC50) is < 5 µM.

In the case of `Cc1cc(NC(=O)c2ccc(F)c(C(F)(F)C(=O)N3[C@@H]4COC[C@H]3CN(S(N)(=O)=O)C4)c2)ccc1F` [Example 266, 3-(1,1-difluoro-2-oxo-2-((1R,5S)-7-sulfamoyl-3-oxa-7,9-diazabicyclo[3.3.1]nonan-9-yl)ethyl)-4-fluoro-N-(4-fluoro-3-methylphenyl)benzamide], the CC50 at 7 days in series [1] is > 30 µM. Besides, the EC50 in series [2] is < 5 µM.

For `Cc1cc(NC(=O)c2ccc(F)c(C(F)(F)C(=O)N3CCC(O)(CO)CC3)c2)ccc1F` [Example 75, 3-(1,1-difluoro-2-(4-hydroxy-4-(hydroxymethyl)piperidin-1-yl)-2-oxoethyl)-4-fluoro-N-(4-fluoro-3-methylphenyl)benzamide], in series [1], the CC50 at 7 days was 5 to 30 µM. For the same molecule, in series [2], the EC50 is < 5 µM.

For `Cc1cc(NC(=O)c2cc(C(O)(C(=O)NC(C)(C)C)C(C)C)cn2C)ccc1F` (centres unmarked) [Example 124, 4-(1-(tert-butylamino)-2-hydroxy-3-methyl-1-oxobutan-2-yl)-N-(4-fluoro-3-methylphenyl)-1-methyl-1H-pyrrole-2-carboxamide], the CC50 at 7 days in series [1] is > 30 µM. Moreover, in series [2], the EC50 lay within 5 to 30 µM.

Consider `Cc1cc(NC(=O)c2cc(C(F)(F)C(=O)N[C@H]3CC[C@@H](O)CC3)n(C)c2)ccc1F` [Example 125, 5-(1,1-difluoro-2-(((1s,4s)-4-hydroxycyclohexyl)amino)-2-oxoethyl)-N-(4-fluoro-3-methylphenyl)-1-methyl-1H-pyrrole-3-carboxamide], for which the CC50 at 7 days in series [1] was > 30 µM. The EC50 in series [2] is < 5 µM.

`Cc1cc(NC(=O)c2ccc(F)c(C(F)(F)C(=O)N3CCC(N)C(C)(C)C3)c2)ccc1F` (centres unmarked) [Example 285, 3-(2-(4-amino-3,3-dimethylpiperidin-1-yl)-1,1-difluoro-2-oxoethyl)-4-fluoro-N-(4-fluoro-3-methylphenyl)benzamide] displayed a CC50 at 7 days in series [1] of 5 to 30 µM. Besides, in series [2], the EC50 was < 5 µM.

In the case of `Cc1cc(NC(=O)c2ccc(F)c(C(F)(F)C(=O)N3C4CC[C@@H]3C[C@@H](C(=O)N3CCOCC3)C4)c2)ccc1F` [Example 260, 3-(1,1-difluoro-2-((1R,3s,5S)-3-(morpholine-4-carbonyl)-8-azabicyclo[3.2.1]octan-8-yl)-2-oxoethyl)-4-fluoro-N-(4-fluoro-3-methylphenyl)benzamide], the CC50 at 7 days in series [1] was > 30 µM. Further, the EC50 in series [2] was < 5 µM.

Consider `Cc1cc(NC(=O)c2ccc(F)c(C(F)(F)C(=O)NCB(O)O)c2)ccc1F` [Example 156, ((2,2-difluoro-2-(2-fluoro-5-((4-fluoro-3-methylphenyl)carbamoyl)phenyl)acetamido)methyl)boronic acid], for which, in series [1], the CC50 at 7 days was in the range of 5 to 30 µM. Besides, the EC50 in series [2] was in the range of 5 to 30 µM.

Regarding `Cc1cc(NC(=O)c2ccc(F)c(C(F)(F)C(=O)N3[C@@H]4CCC[C@H]3C[C@H](N)C4)c2)ccc1F` [Example 337, 3-(2-((1R,3s,5S)-3-amino-9-azabicyclo[3.3.1]nonan-9-yl)-1,1-difluoro-2-oxoethyl)-4-fluoro-N-(4-fluoro-3-methylphenyl)benzamide], in series [1], the CC50 at 7 days was in the range of 5 to 30 µM. For the same molecule, the EC50 in series [2] is < 5 µM.

Take `Cc1cc(NC(=O)c2cc(C(F)(F)C(=O)N3CCC(B(O)O)CC3)n(C)c2)ccc1F` [Example 122, (1-(2,2-difluoro-2-(4-((4-fluoro-3-methylphenyl)carbamoyl)-1-methyl-1H-pyrrol-2-yl)acetyl)piperidin-4-yl)boronic acid]: the CC50 at 7 days in series [1] was > 30 µM. Also, the EC50 in series [2] fell in the range of 5 to 30 µM.

With `Cc1cc(NC(=O)c2cn(C)c(C(F)(F)C(=O)NC(C)(C)C)c2C)ccc1F` [Example 113, 5-(2-(tert-butylamino)-1,1-difluoro-2-oxoethyl)-N-(4-fluoro-3-methylphenyl)-1,4-dimethyl-1H-pyrrole-3-carboxamide], the CC50 at 7 days in series [1] is > 30 µM. Besides, the EC50 in series [2] was < 5 µM.

Consider `Cc1cc(NC(=O)c2ccc(F)c(C(F)(F)C(=O)N3CC4COCC(C3)C4O)c2)ccc1F` (centres unmarked) [Example 310, 3-(1,1-difluoro-2-(9-hydroxy-3-oxa-7-azabicyclo[3.3.1]nonan-7-yl)-2-oxoethyl)-4-fluoro-N-(4-fluoro-3-methylphenyl)benzamide], for which, in series [1], the cytotoxic concentration (CC50) at 7 days is > 30 µM. In addition, the 50% effective concentration (EC50) in series [2] is < 5 µM.

Take `Cc1cc(NC(=O)c2cc(C(F)(F)C(=O)NC3(C)CCCOC3)n(C)c2)ccc1F` (centres unmarked) [Example 133, 5-(1,1-difluoro-2-((3-methyltetrahydro-2H-pyran-3-yl)amino)-2-oxoethyl)-N-(4-fluoro-3-methylphenyl)-1-methyl-1H-pyrrole-3-carboxamide]: the CC50 at 7 days in series [1] is > 30 µM. Also, the EC50 in series [2] was < 5 µM.

As to `Cn1ccc(C(=O)Nc2ccc(F)c(Cl)c2)c1C(F)(F)C(=O)NC1(C#N)CC1` [Example 147, N-(3-chloro-4-fluorophenyl)-2-(2-((1-cyanocyclopropyl)amino)-1,1-difluoro-2-oxoethyl)-1-methyl-1H-pyrrole-3-carboxamide], the CC50 at 7 days in series [1] was > 30 µM. For the same molecule, the EC50 in series [2] lay in the range of 5 to 30 µM.

In series [1], `Cc1cc(NC(=O)c2ccc(Cl)c(C(F)(F)C(=O)N3[C@@H]4CC[C@H]3C[C@H](O)C4)c2)ccc1F` [Example 221, 4-chloro-3-(1,1-difluoro-2-((1R,3s,5S)-3-hydroxy-8-azabicyclo[3.2.1]octan-8-yl)-2-oxoethyl)-N-(4-fluoro-3-methylphenyl)benzamide] showed a CC50 at 7 days of 5 to 30 µM. Moreover, the EC50 in series [2] was < 5 µM.

In the case of `Cc1cc(NC(=O)c2ccc(F)c(C(F)(F)C(=O)N3[C@@H]4COC[C@H]3CN(C(=O)N3CCS(=O)(=O)CC3)C4)c2)ccc1F` [Example 210, 3-(2-((1R,5S)-7-(1,1-dioxidothiomorpholine-4-carbonyl)-3-oxa-7,9-diazabicyclo[3.3.1]nonan-9-yl)-1,1-difluoro-2-oxoethyl)-4-fluoro-N-(4-fluoro-3-methylphenyl)benzamide], the CC50 at 7 days in series [1] was > 30 µM. Moreover, the EC50 in series [2] was < 5 µM.
